Measured values from patent EP0719251B1, “BICYCLO (2.2.2) OCTANE DERIVATIVES CHOLECYSTOKININ AND/OR GASTRIN ANTAGONISTS” (JAMES BLACK FOUNDATION LIMITED, priority 1993, dated 1995).

Columns and labels:
CCKA = biological target: T1, CCKA (Cavia porcellus, UniProt Q63931); assay: CCKA binding assay in guinea-pig pancreas membranes; details: [125I]-CCK8(S) 200pM; for Ki: containing 0.375 µM PD134,308, read-out: CCKA pKi (converted); for CCKA pKi: containing 0.375 µM PD134,308
T1 construct: The pancreatata were removed from male guinea-pigs (200-300g; Dunkin Hartley); from tissue; host or cells: pancreas membranes of male Dunkin Hartley guinea-pigs
T1 sequence (Q63931 1-430): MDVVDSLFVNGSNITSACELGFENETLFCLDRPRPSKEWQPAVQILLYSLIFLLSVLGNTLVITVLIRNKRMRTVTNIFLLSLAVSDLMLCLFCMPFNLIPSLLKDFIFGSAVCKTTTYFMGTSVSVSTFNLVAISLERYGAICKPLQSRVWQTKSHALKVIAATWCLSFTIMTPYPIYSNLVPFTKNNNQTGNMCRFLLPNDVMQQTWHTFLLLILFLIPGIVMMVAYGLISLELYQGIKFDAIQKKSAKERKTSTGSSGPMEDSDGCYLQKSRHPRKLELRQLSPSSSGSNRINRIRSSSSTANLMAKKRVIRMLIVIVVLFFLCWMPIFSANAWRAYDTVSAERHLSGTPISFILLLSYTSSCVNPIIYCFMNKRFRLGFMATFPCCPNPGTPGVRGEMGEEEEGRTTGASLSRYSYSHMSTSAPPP
Method: The compounds of the examples were also tested in a CCKÅ binding assay as follows:
The pancreatata were removed from male guinea-pigs (200-300g; Dunkin Hartley) and placed in ice-cold HEPES buffer (pH 7.2 @ 21 ± 3° ). The pancreatata were homogenised in 40 ml ice-cold HEPES buffer using a polytron (Brinkmann, PT10, setting 10) 4 x 1 second.
The homogenate was centrifuged at 39,800g for 15 min at 4°. The supernatant was discarded and the pellet re-suspended using a Teflon-in-glass homogeniser in 20 volumes of fresh buffer and recentrifuged as above. The final pellet was re-suspended using a Teflon-in-glass homogeniser to a tissue concentration of 1 mg.ml^-1 (original wet weight), and filtered through 500 µm pore-size Nytex mesh.
The membranes (400µl; containing 0.375 µM PD134,308) are incubated for 150 minutes at 21 ± 3° in a final volume of 0.5ml with HEPES buffer containing [^125I]-CCK8(S) (50µl; 200pM) and competing compound. Total and non-specific binding of [^125I]-CCK8 (S) are defined using 50µl of buffer and 50µl of 100nM L-364,718 respectively. The assay is terminated by rapid filtration through pre-soaked Whatman GF/B filters using a Brandell Cell Harvester. The filters were washed (3 x 3ml) with ice-cold 50mM Tris HCl (pH 7.4 at 4° ) and bound radioactivity is determined by counting (1 min) in a gamma counter.

gastrin = biological target: T2, gastrin (Rattus norvegicus, UniProt P30553); assay: gastrin antagonist activity in an immature rat stomach assay; details: isolated immature rat stomach, cumulative pentagastrin dose-response curves, acid secretion; for Kb: read-out: Gastrin pKB (converted)
T2 construct: The stomach was excised and flushed with ca. 1 ml of unbuffered physiological saline solution; from tissue; host or cells: isolated whole stomach of immature rats (33-50 g, ca. 21 days old)
T2 sequence (P30553 1-452): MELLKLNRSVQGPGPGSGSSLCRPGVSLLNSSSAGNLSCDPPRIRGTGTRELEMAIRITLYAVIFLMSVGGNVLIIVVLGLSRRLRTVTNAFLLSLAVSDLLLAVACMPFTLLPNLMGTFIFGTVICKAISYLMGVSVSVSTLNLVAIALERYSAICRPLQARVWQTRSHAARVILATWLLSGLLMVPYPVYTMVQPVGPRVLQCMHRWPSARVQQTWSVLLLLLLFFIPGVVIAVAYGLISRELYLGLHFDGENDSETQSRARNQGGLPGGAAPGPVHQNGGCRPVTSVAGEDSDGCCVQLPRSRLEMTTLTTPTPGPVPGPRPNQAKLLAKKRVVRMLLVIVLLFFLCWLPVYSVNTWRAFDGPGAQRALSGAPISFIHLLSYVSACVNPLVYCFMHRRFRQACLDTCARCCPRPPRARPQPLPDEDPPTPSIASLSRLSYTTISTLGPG
Method in brief: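 Isolated stomachs from immature rats (33-50 g, ca. 21 days) perfused at 1 ml min^-1 with O2-gassed unbuffered saline, perfusate pH monitored by electrode. After 120 min stabilisation, compounds added to serosal bath; cumulative pentagastrin dose-response curves begun 60 min later.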

CCKB receptor = biological target: T3, CCKB receptor (Mus musculus, UniProt P56481); assay: radioligand binding assay at the CCKB receptor in mouse cortical membranes; details: [125I]-CCK8S 200pM, 150 min at 21 ± 3°C, read-out: CCKB pKi (converted)
T3 construct: The whole brains from male mice (CD1 22-25g; Charles River) were removed; from tissue; host or cells: cerebral cortex membranes of male CD1 mice
T3 sequence (P56481 1-453): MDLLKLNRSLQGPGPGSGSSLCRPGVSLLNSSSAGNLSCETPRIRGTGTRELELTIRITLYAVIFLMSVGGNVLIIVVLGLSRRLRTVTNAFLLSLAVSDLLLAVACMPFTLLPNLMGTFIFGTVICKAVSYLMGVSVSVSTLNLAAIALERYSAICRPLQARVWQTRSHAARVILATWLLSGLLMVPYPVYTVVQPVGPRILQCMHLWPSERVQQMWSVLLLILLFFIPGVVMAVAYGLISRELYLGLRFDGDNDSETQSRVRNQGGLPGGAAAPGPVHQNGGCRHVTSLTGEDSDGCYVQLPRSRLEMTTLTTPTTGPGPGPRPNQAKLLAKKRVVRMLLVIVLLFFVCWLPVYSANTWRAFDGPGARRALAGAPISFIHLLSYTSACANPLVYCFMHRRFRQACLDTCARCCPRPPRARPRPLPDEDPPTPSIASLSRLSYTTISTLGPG
Method in brief: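 Radioligand binding was quantified by gamma counting after filtration through GF/B filters and cold 50 mM Tris-HCl (pH 7.4) washes. Tissue source was male CD1 mouse cortex, homogenised and twice centrifuged, then resuspended at 2 mg.ml^-1 original wet weight in pH 7.2 HEPES buffer containing bacitracin.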

| Ki (CCKA) [nM] | Kb (gastrin) [nM] | Ki (CCKB receptor) [nM] | CCKA pKi (CCKA) | Gastrin pKB (gastrin; 60 min) | SMILES |
| --- | --- | --- | --- | --- | --- |
| 398 | 25.1 | 10 | – | – | O=C(O)c1cc(NC(=O)[C@H](Cc2cccc(F)c2)NC(=O)C2C3c4ccccc4C(c4ccccc43)C2C(=O)NCC23CC4CC(CC(C4)C2)C3)cc(C(=O)O)c1 (single isomer, unassigned) [Example 19, cis-7-(1S-(3,5-dicarboxyphenylaminocarbonyl)-2-(3-fluorophenyl)ethylaminocarbonyl)-8-(1-adamantanemethylaminocarbonyl) -2,3,5,6-dibenzobicyclo[2.2.2]octane] |
| 3160 | 79.4 | 3.98 | – | – | O=C(O)c1cc(NC(=O)[C@H](Cc2ccccc2)NC(=O)C2C3c4ccccc4C(c4ccccc43)C2C(=O)NCCc2ccccc2)cc(C(=O)O)c1 (stereo partly drawn) [Example 53, cis-7-(1S-(3,5-dicarboxyphenylaminocarbonyl) -2-phenylethylaminocarbonyl) -8-(2-phenylethylaminocarbonyl) -2,3,5,6-dibenzobicyclo[2.2.2]octane] |
| – | – | 158 | 6.0 | 5.7 | O=C(O)c1cccc(NC(=O)[C@H](Cc2ccccc2)NC(=O)C2C3c4ccccc4C(c4ccccc43)C2C(=O)NCC23CC4CC(CC(C4)C2)C3)c1 (single isomer, unassigned) [Example 41, cis-7-(1S-(3-carboxyphenylaminocarbonyl)-2-phenylethylaminocarbonyl)-8-(1-adamantanemethylaminocarbonyl)-2,3,5,6-dibenzobicyclo[2.2.2]octane] |
| 1000 | 2.51 | 3.16 | – | – | O=C(O)c1cc(NC(=O)[C@H](Cc2ccccc2F)NC(=O)C2C3c4ccccc4C(c4ccccc43)C2C(=O)NCC23CC4CC(CC(C4)C2)C3)cc(C(=O)O)c1 (single isomer, unassigned) [Example 16, cis-7-(1S-(3,5-dicarboxyphenylaminocarbonyl)-2-(2-fluorophenyl)-ethylaminocarbonyl)-8-(1-adamantanemethylaminocarbonyl) -2,3,5,6-dibenzobicyclo[2.2.2]octane] |
| 316 | 79.4 | 50.1 | – | – | CN(C(=O)C1C2c3ccccc3C(c3ccccc32)C1C(=O)NCC12CC3CC(CC(C3)C1)C2)[C@@H](Cc1ccccc1)C(=O)Nc1cc(C(=O)O)cc(C(=O)O)c1 (stereo partly drawn) [Example 38, cis-7-(1S-(3,5-dicarboxyphenylaminocarbonyl) -2-phenylethyl-N (methyl)-aminocarbonyl) -8-(1-adamantanemethylaminocarbonyl) -2,3,5,6-dibenzobicyclo[2.2.2]octane] |
| 316 | 3.98 | 3.16 | – | – | O=C(O)c1cc(NC(=O)[C@H](Cc2cccc(F)c2)NC(=O)C2C3c4ccccc4C(c4ccccc43)C2C(=O)NCC23CC4CC(CC(C4)C2)C3)cc(C(=O)O)c1 (single isomer, unassigned) [Example 18, cis-7-(1S-(3,5-dicarboxyphenylaminocarbonyl)-2-(3-fluorophenyl) -ethylaminocarbonyl)-8-(1-adamantanemethylaminocarbonyl)-2,3,5,6-dibenzobicyclo[2.2.2]octane] |
| 1000 | 2000 | 15.8 | – | – | O=C(O)c1cccc(NC(=O)[C@H](Cc2ccccc2)NC(=O)C2C3c4ccccc4C(c4ccccc43)C2C(=O)NCC23CC4CC(CC(C4)C2)C3)c1 (single isomer, unassigned) [Example 40, cis-7-(1S-(3-carboxyphenylaminocarbonyl)-2-phenylethylaminocarbonyl) -8-(1-adamantanemethylaminocarbonyl)-2,3,5,6-dibenzobicyclo[2.2.2]octane] |
| 2000 | 1580 | 31.6 | – | – | COC(=O)c1cc(NC(=O)[C@H](Cc2ccccc2)NC(=O)C2C3c4ccccc4C(c4ccccc43)C2C(=O)NCC23CC4CC(CC(C4)C2)C3)cc(C(=O)O)c1 (stereo partly drawn) [Example 42, cis-7-(1S-(3-carboxy-5-methoxycarbonyl-phenylaminocarbonyl)-2-phenylethylaminocarbcnyl)-8-(1-adamantanemethylaminocarbonyl) -2,3,5,6-dibenzobicyclo[2.2.2]octane] |
| – | 316 | 5.01 | 5.8 | – | O=C(O)c1cc(NC(=O)[C@H](Cc2ccccc2)NC(=O)C2C3c4ccccc4C(c4ccccc43)C2C(=O)NCc2ccc3ccccc3c2)cc(C(=O)O)c1 (single isomer, unassigned) [Example 64, cis-7-(1S-(3,5-dicarboxyphenylaminocarbonyl) -2-phenylethylaminocarbcnyl)-8-(2-naphthalenemethylaminocarbonyl)-2,3,5,6-dibenzobicyclo [2.2.2]octane] |
| 1260 | 251 | 200 | – | – | O=C(O)c1cc(NC(=O)[C@H](Cc2ccccc2)NC(=O)C2C3c4ccccc4C(c4ccccc43)C2C(=O)NCC2CCCCC2)cc(C(=O)O)c1 (single isomer, unassigned) [Example 31, cis-7-(1S-(3,5-dicarboxyphenylaminocarbonyl) -2-phenylethylaminocarbonyl)-8-(cyclohexanemethylaminocarbonyl) -2,3,5,6-dibenzobicyclo[2.2.2]octane] |
| 2510 | 126 | 10 | – | – | O=C(O)c1cc(NC(=O)[C@@H](Cc2ccccc2)NC(=O)C2C3c4ccccc4C(c4ccccc43)C2C(=O)NCC23CC4CC(CC(C4)C2)C3)cc(C(=O)O)c1 (single isomer, unassigned) [Example 3, cis-7-(1R-(3,5-dicarboxyphenylaminocarbonyl) -2-phenylethylaminocarbonyl)-8-(1-adamantanemethylaminocarbonyl) -2,3,5,6-dibenzobicyclo[2.2.2]octane] |
| 1260 | 1000 | 158 | – | – | O=C(O)c1cc(NC(=O)[C@H](Cc2ccccc2)NC(=O)C2C3c4ccccc4C(c4ccccc43)C2C(=O)NCc2ccc(Cl)c(Cl)c2)cc(C(=O)O)c1 (single isomer, unassigned) [Example 35, cis-7-(1S-(3,5-dicarboxyphenylaminocarbonyl)-2-phenylethylaminocarbonyl) -8-(3,4-dichlorophenyl-methylaminocarbonyl) -2,3,5,6-dibenzobicyclo[2.2.2]octane] |
